Key:
K-Ras G12C [1] = molecular target: T1, K-Ras G12C (Homo sapiens, UniProt P01116, G12C); experiment: Western blot assay for in cell alkylation of K-Ras G12C (HCC1171 cells); type: cell-based; set-up: endogenous in cells; host or cells: HCC1171; settings: 18 hours at 37° C., 7 point dose response
Procedure: Western Blot Assay for in Cell Alkylation of K-Ras G12C
HCC1171 cells were maintained in RPMI1640 supplemented with 10% FBS. Cells were plated in a 96-well plate at 20,000 cells/well and the following day compounds were added to the cells. After 18 hours at 37° C., cells were lysed in RIPA buffer (Sigma R0278) with 0.5% SDS and protease/phosphatase inhibitor cocktail. After through mixing to enable complete lysis, the lysates were cleared by centrifugation before 20 μl was transferred from each well and combined with loading buffer and reducing agent. After heating for 10 minutes at 95° C., 15 μl of each sample was loaded onto a 4-20% Tris-Glycine gel and electrophoresed at 110V for 165 minutes in SDS-PAGE running buffer. Gels were transferred to a nitrocellulose membrane, blocked for 1 hour and stained overnight at 4° C. with primary antibody against K-Ras (polyclonal Proteintech 12063-1-AP). The membrane was then washed thoroughly and counterstained with anti-rabbit IRDye 800CW (LI-COR 926-32211) for one hour at room temperature. After final washes, the membrane was imaged on a LI-COR Odyssey CLx at medium resolution. Alkylated K-Ras was visible by an electrophoretic shift from unmodified K-Ras. To quantify this affect, the LICOR software was used to draw a rectangle over alkylated and unalkylated bands for each well and measured the total fluorescent intensity (FI) in each of these bands. The following formula was then used to calculate % alkylation: FI(alkylated)/(FI(alkylated)+FI(unalkylated))*100 for each well.
A 7 point dose response curve was used to determine the IC50 for each compound. Cell alkylation data are presented below in Table 2.
Target sequence in this assay (P01116 1-188 isoform P01116-2 G12C): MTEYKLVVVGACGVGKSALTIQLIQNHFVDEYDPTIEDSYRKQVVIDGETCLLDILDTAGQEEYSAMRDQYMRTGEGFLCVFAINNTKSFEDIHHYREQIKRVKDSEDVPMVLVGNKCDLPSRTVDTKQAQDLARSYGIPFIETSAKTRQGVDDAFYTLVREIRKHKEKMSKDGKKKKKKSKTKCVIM

K-Ras G12C [2] = molecular target: T1, K-Ras G12C; experiment: K-Ras G12C, SOS1, Raf RBD HTRF assay for inhibition of GTP exchange; type: biochemical; set-up: K-Ras G12C (residues 2-188) and SOS1 (residues 564-1049) had N-terminal 6-His; made in house; host or cells: E. coli; settings: 18 hours preincubation with K-Ras G12C at room temperature; SOS1-mediated GTP exchange
Procedure: K-Ras G12C, SOS1, Raf RBD Homogeneous Time Resolved Fluorescence (HTRF) Assay for Inhibition of GTP Exchange
After 18 hours at room temperature, the SOS1 GTP exchange factor (1.67 nM during exchange, 1.25 nM final) was added to initiate nucleotide exchange to GTP (200 μM during exchange, 150 μM final). The level of GTP exchange was assessed by addition of a Ras binding domain derived from C-Raf and the HTRF detection antibodies Tb-anti-FLAG and D2-anti-his (Cis-Bio) at 50 nM, 1 nM and 12.5 nM, respectively. After 2 hours, the ratio of 665 nm to 615 nm emission with 320 nm excitation was measured on an Envision plate reader (Perkin Elmer).
The final reaction volume was 20 μl in a ProxiPlate-384F Plus (Perkin Elmer), in buffer containing 20 mM HEPES, 150 mM NaCl, 1 mM MgCl2, 0.1% BSA, 0.03% Tween-20 and 1 mM DTT. […] HTRF data are presented below in Table 2.
Target sequence in this assay (P01116 2-188 isoform P01116-2 G12C): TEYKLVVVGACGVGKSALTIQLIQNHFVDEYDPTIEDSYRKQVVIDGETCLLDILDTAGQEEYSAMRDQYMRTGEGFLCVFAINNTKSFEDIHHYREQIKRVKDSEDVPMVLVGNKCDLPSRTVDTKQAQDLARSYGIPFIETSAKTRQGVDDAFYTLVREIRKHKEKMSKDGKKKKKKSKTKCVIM

Row | Compound | EC50 (K-Ras G12C [1]) [nM] | IC50 (K-Ras G12C [2]) [nM]
1 | C=CC(=O)N1CCN(c2ncnc3c2CC[C@H](c2cncc4ccccc24)C3)CC1 (single isomer, unassigned) [Example 44b] | 1000 | 8700
2 | C=CC(=O)N1CCN(c2ncnc3c2CC[C@H](c2nc(N)ccc2C(F)(F)F)C3)CC1 (single isomer, unassigned) [Example 46b] | 970 | 230
3 | C=C(F)C(=O)N1CCN(c2nc(OC[C@@H]3CCCN3C)nc3c2CCC(c2cccc4ccccc24)C3)CC1CC#N (single isomer, unassigned) [Example 47a] | 530 | 150
4 | C=C(F)C(=O)N1CCN(c2nc(OC[C@@H]3CCCN3C)nc3c2CCC(c2cccc4ccccc24)C3)CC1CC#N (single isomer, unassigned) [Example 47c] | 450 | 130
5 | C=C(F)C(=O)N1CCN(c2nc(OC[C@@H]3CCCN3C)nc3c2CCC(c2cccc4ccccc24)C3)C[C@@H]1CC#N (single isomer, unassigned) [Example 47d] | 30 | < 10
6 | C=CC(=O)N1CCN(c2nc(OC[C@@H]3COC(=O)N3C)nc3c2CC[C@H](c2cc(O)cc4ccccc24)C3)[C@@H](C)C1 (single isomer, unassigned) [Example 57c] | 830 | 53
7 | C=CC(=O)N1CCN(c2nc(OC[C@H]3COC(=O)N3C)nc3c2CC[C@H](c2cc(O)cc4ccccc24)C3)[C@@H](C)C1 (single isomer, unassigned) [Example 57d] | 880 | 45
8 | C=CC(=O)N1CCN(c2nc(OC[C@@H]3CCCN3C)nc3c2CC[C@H](c2cc(O)cc4ccccc24)C3)C[C@@H]1CC#N (single isomer, unassigned) [Example 58b] | 1900 | 130
9 | C=CC(=O)N1CCN(c2nc(OC[C@@H]3CCCN3C)nc3c2CC[C@H](c2cc(O)cc4ccccc24)C3)C[C@H]1CC#N (single isomer, unassigned) [Example 58c] | 340 | 29
10 | C=CC(=O)N1CCN(c2nc(OC[C@@H]3CCCN3C)nc3c2CC[C@@H](c2cc(O)cc4ccccc24)C3)C[C@@H]1CC#N (single isomer, unassigned) [Example 58d] | 6.3 | 24
11 | C=CC(=O)N1CCN(c2nc(OC[C@@H]3CCCN3C)nc3c2CC[C@@H](c2cc(O)cc4ccccc24)C3)C[C@H]1CC#N (single isomer, unassigned) [Example 58e] | 110 | 29
12 | C=C(F)C(=O)N1CCN(c2nc(OC[C@@H]3CCCN3C)nc3c2CC[C@H](c2cc(O)cc4ccccc24)C3)C[C@H]1CC#N (single isomer, unassigned) [Example 61b] | 2800 | 640
13 | C=C(F)C(=O)N1CCN(c2nc(OC[C@@H]3CCCN3C)nc3c2CC[C@H](c2cc(O)cc4ccccc24)C3)C[C@@H]1CC#N (single isomer, unassigned) [Example 61c] | 1800 | 83
14 | C=C(F)C(=O)N1CCN(c2nc(OC[C@@H]3CCCN3C)nc3c2CC[C@@H](c2cc(O)cc4ccccc24)C3)C[C@H]1CC#N (single isomer, unassigned) [Example 61d] | 11 | 28
15 | C=C(F)C(=O)N1CCN(c2nc(OC[C@@H]3CCCN3C)nc3c2CC[C@@H](c2cc(O)cc4ccccc24)C3)C[C@@H]1CC#N (single isomer, unassigned) [Example 61e] | 1500 | 90
16 | CN1CCC[C@H]1COc1nc2c(c(N3CCN(C(=O)/C=C/CF)[C@H](CC#N)C3)n1)CC[C@H](c1cc(O)cc3ccccc13)C2 (single isomer, unassigned) [Example 62b] | 2900 | 180
17 | CN1CCC[C@H]1COc1nc2c(c(N3CCN(C(=O)/C=C/CF)[C@@H](CC#N)C3)n1)CC[C@H](c1cc(O)cc3ccccc13)C2 (single isomer, unassigned) [Example 62c] | 1000 | 73
18 | CN1CCC[C@H]1COc1nc2c(c(N3CCN(C(=O)/C=C/CF)[C@H](CC#N)C3)n1)CCC(c1cc(O)cc3ccccc13)C2 (single isomer, unassigned) [Example 62d] | 6.4 | < 10
19 | CN1CCC[C@H]1COc1nc2c(c(N3CCN(C(=O)/C=C/CF)[C@@H](CC#N)C3)n1)CC[C@@H](c1cc(O)cc3ccccc13)C2 (single isomer, unassigned) [Example 62e] | 450 | 660
20 | C=CC(=O)N1CCC(C#N)(c2nc(OC[C@@H]3CCCN3C)nc3c2CCC(c2cc(O)cc4ccccc24)C3)CC1 (stereo partly drawn) [Example 7a, 4-[7-(3-hydroxy-1-naphthyl)-2-[[(2S)-1-methylpyrrolidin-2-yl]methoxy]-5,6,7,8-tetrahydroquinazolin-4-yl]-1-prop-2-enoyl-piperidine-4-carbonitrile] | 2500 | 87
21 | C=CC(=O)N1CCN(c2nc(OC[C@@H]3CCCN3C)nc3c2CC(C)C(c2c(C)ccc4[nH]ncc24)C3)CC1 (stereo partly drawn) [Example 18a, 1-(4-(6-methyl-7-(5-methyl-1H-indazol-4-yl)-2-(((S)-1-methylpyrrolidin-2-yl)methoxy)-5,6,7,8-tetrahydroquinazolin-4-yl)piperazin-1-yl)prop-2-en-1-one] | 280 | 24
22 | C=CC(=O)N1CCN(c2nc(OC[C@@H]3CCCN3C)nc3c2CCC2(CCCCC2)C3)CC1 [Example 25a, (S)-1-(4-(2′-((1-methylpyrrolidin-2-yl)methoxy)-5′,8′-dihydro-6′H-spiro[cyclohexane-1,7′-quinazolin]-4′-yl)piperazin-1-yl)prop-2-en-1-one] | 1000 | 5400
23 | C=CC(=O)N1CCN(c2ncnc3c2CCC(c2nc(N)cc(C)c2C(F)(F)F)C3)CC1 (stereo not shown) [Example 26, 1-[4-[7-[6-amino-4-methyl-3-(trifluoromethyl)-2-pyridyl]-5,6,7,8-tetrahydroquinazolin-4-yl]piperazin-1-yl]prop-2-en-1-one] | 2200 | 270
24 | C=CC(=O)N1CCN(c2ncnc3c2CC[C@H](c2nc(N)cc(C)c2C(F)(F)F)C3)CC1 [Example 26a, (S)-1-(4-(7-(6-amino-4-methyl-3-(trifluoromethyl)pyridin-2-yl)-5,6,7,8-tetrahydroquinazolin-4-yl)piperazin-1-yl)prop-2-en-1-one] | 1200 | 180
25 | C=CC(=O)N1CCN(c2ncnc3c2CC[C@@H](c2nc(N)cc(C)c2C(F)(F)F)C3)CC1 [Example 26b, (R)-1-(4-(7-(6-amino-4-methyl-3-(trifluoromethyl)pyridin-2-yl)-5,6,7,8-tetrahydroquinazolin-4-yl)piperazin-1-yl)prop-2-en-1-one] | 17000 | 4800
26 | CN1CCC[C@H]1COc1nc2c(c(N3CCN(C(=O)/C=C/CNC45CC(C4)C5)[C@@H](CC#N)C3)n1)CCC(c1cccc3ccccc13)C2 (stereo partly drawn) [Example 48a, 2-((2S)-1-((E)-4-(bicyclo[1.1.1]pentan-1-ylamino)but-2-enoyl)-4-(2-(((S)-1-methylpyrrolidin-2-yl)methoxy)-7-(naphthalen-1-yl)-5,6,7,8-tetrahydroquinazolin-4-yl)piperazin-2-yl)acetonitrile] | 150 | 11

Source: patent US11760744B2, “Fused ring compounds” (Genentech, Inc., priority 2018, dated 2023)
